From PubChem BioAssay AID977613 (Broad Institute, 2014) come the findings set out here.

SMILES strings stand for the structures. Activity calls are given as the source filed them. The rule behind the calls is not given here. Where only a bound is given, the exact number is not on record here.

The test system of the assay is Broad 7084-01 inhibitor HTS, set 2. As to the kind of experiment: single-concentration hits, screen 7084 set 2 (AID 977613).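 Note: host cells are infected with parasite promastigotes that become internalized.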

Turning to `COc1ccc(-c2ccc3c(c2)[C@@H]2[C@@H](CCN2C(=O)CN2CCOCC2)[C@@H](CO)N3)cc1`, the active concentration is > 10 µM (inactive). `O=C(C[C@@H]1CC[C@H]2[C@@H](COC[C@H](O)CN2Cc2cccc(F)c2)O1)NCc1cccc(F)c1`: the active concentration is > 10 µM (inactive). The figure for `OC[C@H]1[C@H](c2ccc(Br)cc2)[C@H]2CN(Cc3ccccn3)CCCCN21` is below 10 µM; for `CN1[C@H](CO)[C@@H]2c3ccccc3N(C(=O)c3ccc(F)cc3)C[C@@H]21` it is > 10 µM (inactive); for `CN1c2ccc(Br)cc2[C@H]2[C@H](CCN2C(=O)Cc2ccccc2)[C@H]1CO` it is > 10 µM (inactive). For the molecule `O=C(NC1CCCCC1)N1CC(=O)N2[C@H](C1)[C@H](c1ccc(-c3ccncc3)cc1)[C@@H]2CO`, the active concentration is > 10 µM (inactive). For the molecule `CN1C(=O)c2cc(NC(=O)c3cnccn3)ccc2OC[C@@H]2O[C@@H](CC(=O)NCC3CCCCC3)CC[C@H]21`, the active concentration was > 10 µM (inactive). Consider `O=C(C[C@@H]1CC[C@@H]2NC[C@@H](O)COC[C@H]2O1)NCCN1CCCC1`, for which the active concentration is > 10 µM (inactive). `COc1ccccc1-c1ccccc1[C@@H]1[C@H](C#N)N(C(=O)C2CCOCC2)[C@H]1CO`: the active concentration was > 10 µM (inactive). With `O=C(c1ccccn1)N1CC2(C1)[C@H](c1ccccc1)[C@@H](CO)N2Cc1ccccc1`, the active concentration was > 10 µM (inactive). Consider `CCCNC(=O)N1[C@H](C#N)[C@H](c2ccccc2-c2ccccc2F)[C@@H]1CO`, for which the active concentration was > 10 µM (inactive). Consider `OC[C@@H]1[C@H](c2ccccc2)C2(CN(Cc3nccs3)C2)N1CCC(F)(F)F`, for which the active concentration is > 10 µM (inactive). As for `O=C1CNC[C@@H]2[C@H](c3ccc(C#CC4CCCCC4)cc3)[C@@H](CO)N12`, the active concentration was > 10 µM (inactive).

As to `COc1ccc2c3c(n(C)c2c1)[C@@H](CO)N(CC1CCOCC1)CC31CN(Cc2nccs2)C1`, the active concentration was > 10 µM (inactive). On to `CCCC#Cc1ccc([C@@H]2[C@H](CO)N3C(=O)CN(S(=O)(=O)c4ccccc4C)C[C@@H]23)cc1`, for which the active concentration was > 10 µM (inactive). Regarding `CN1CCN(C(=O)C[C@H]2CC[C@@H]3[C@H](COC[C@H](O)CN3C(=O)C3CC3)O2)CC1`, the active concentration is > 10 µM (inactive). As to `COC(=O)[C@H]1[C@H](CO)[C@H]2Cn3c(ccc(-c4ccccc4OC)c3=O)[C@H]2N1C(=O)c1cnccn1`, the active concentration is > 10 µM (inactive).

With `N#C[C@@H]1[C@@H](c2ccccc2-c2ccccc2F)[C@@H](CO)N1C(=O)C1CCC1`, the active concentration was > 10 µM (inactive).

Turning to `CCCNC(=O)N1CC(=O)N2[C@H](C1)[C@H](c1ccc(C#CCC3CCCC3)cc1)[C@@H]2CO`, the active concentration was > 10 µM (inactive). Turning to `COc1ccc(CN2[C@H](CO)[C@H]3c4ccccc4N(C(=O)Nc4ccc(F)cc4)C[C@H]32)cc1`, the active concentration was > 10 µM (inactive).

In the case of `CN1C(=O)c2cc(NS(C)(=O)=O)ccc2OC[C@H]2O[C@H](CC(=O)N3CCOCC3)CC[C@H]21`, the active concentration is > 10 µM (inactive). For `O=C(c1cnccn1)N1CC(=O)N2[C@H](CO)[C@@H](c3ccc(C#CC4CC4)cc3)[C@@H]2C1`, the active concentration was > 10 µM (inactive). `COc1ccc2c3c(n(C)c2c1)[C@H](CO)N(C)CC31CCN(S(=O)(=O)c2cccc(F)c2)CC1`: the active concentration was > 10 µM (inactive). Consider `CN1c2ccc(C#Cc3cccnc3)cc2[C@H]2[C@H](CCN2S(=O)(=O)c2ccccc2F)[C@@H]1CO`, for which the active concentration is > 10 µM (inactive).
